Source: patent US11382883B2, “Intermediate metabolism products to potentiate aminoglycoside antibiotics in bacterial infections” (TRUSTEES OF BOSTON UNIVERSITY, priority 2013, dated 2022)
“Also recorded” adds a separate entry of the source.

What was measured:
P. aeruginosa persisters = test: Persister cell eradication: carbon sources plus tobramycin, survival by c.f.u. counting; type: cell-based, Pseudomonas aeruginosa; details: for potentiation of tobramycin killing of persisters by carbon source (efficiency of tested metabolites): tobramycin 40 mg/l, carbon sources normalized to 60 mM carbon, M9 minimal media, ciprofloxacin-selected persisters; for potentiation of antibiotic efficacy / sensitization to aminoglycoside antibiotics: P. aeruginosa cells in various reduced metabolic states, in conjunction with aminoglycosides
[1] = tested on: P. aeruginosa stationary phase cells; test: Stationary phase cells eradication: carbon sources plus tobramycin, survival by c.f.u. counting; type: cell-based, Pseudomonas aeruginosa
Description: Cells from frozen stock were plated overnight at 37° C., following which a single colony forming unit (CFU) was grown in Luria-Bertani (LB) broth at 300 r.p.m. and 80% humidity to an optical density at 600 nm (OD600) of 0.3. Cells were then diluted 1:1,000 in 25 ml LB and grown for 16 h at 37° C., 300 r.p.m. and 80% humidity in 250 ml flasks. Cells were then washed (Spin 5000 rpm (Thermofisher centrifuge) for 15 mins. Samples were then washed with 20 ml of 1× filtered PBS (again spin 5000 rpm for 15 mins) and re-suspended in M9 minimal media. Carbon sources and antibiotics (tobramycin 40 mg/l) were added and samples were incubated at 37° C., 300 r.p.m. and 80% humidity At specified time points, 10-μl aliquots of cells were removed and washed with PBS, serially diluted and spot-plated onto LB agar plates to determine colony-forming units per ml (c.f.u. ml−1). The concentration of carbon sources were normalized to deliver 60 mM carbon (for example 10 mM glucose, 15 mM fumarate, 20 mM pyruvate etc.). Survivors were enumerated by plating 10 ul aliquots with serial dilutions taken from 1 ml spun down and PBS washed (remaining AB). […] Survival was determined by dividing the c.f.u. ml−1 of a sample at each time point by the initial c.f.u. ml−1 for that sample.

[2] = i.v. administration; cited from earlier work

| Compound | potentiation of tobramycin killing of persisters by carbon source (efficiency of tested metabolites) (P. aeruginosa persisters) | potentiation of antibiotic efficacy / sensitization to aminoglycoside antibiotics (P. aeruginosa persisters) | also measured |
| --- | --- | --- | --- |
| OC[C@@H](O)[C@@H](O)[C@H](O)[C@H](O)CO [Mannitol, mannitol] | not efficient |  |  |
| CCC(=O)O [propionate] | recapitulated this to some effect | sensitize the bacterium to aminoglycoside antibiotics |  |
| O=C(O)CCC(=O)O [succinate] | most potent | very strong results |  |
| NC[C@H]1O[C@H](O[C@H]2[C@H](O)[C@@H](O[C@H]3O[C@H](CO)[C@@H](O)[C@H](N)[C@H]3O)[C@H](N)C[C@@H]2N)[C@H](N)C[C@@H]1O [tobramycin, reference compound] |  |  | killing with incremental doses of tobramycin for a given fumarate ([1]; FIG. 2, administered with fumarate): increased killing; also recorded: higher killing; typical peak serum concentration [2]: 40 mg/L |
| O=C(O)/C=C/C(=O)O [fumarate] | most potent | very strong results | killing with incremental doses of fumarate for a given dose of tobramycin ([1]; FIG. 2, tobramycin 40 mg/L): increased killing; killing of P. aeruginosa in stationary phase by tobramycin ([1]; FIGS. 2A-2B): enables killing |
| O=C(CO)[C@@H](O)[C@H](O)[C@H](O)CO [Fructose, fructose] | not efficient |  |  |
| O=C(O)[C@H](O)[C@@H](O)[C@H](O)[C@H](O)CO [gluconate] | variable levels of efficiency |  |  |
